Measured values as given in patent publication US20130225830A1, “POLYMORPHS OF FEBUXOSTAT” (MAPI PHARMA LIMITED, priority 2010, published 2013).
“And” between values parts separate entries of the source, which are not always exact repeats. Identical values can stand only once.

Assays:
Assay type in all cases: physicochemical
[1] = Bulk and tapped density measurements
Procedure: Bulk density testing: A febuxostat form in an amount which is sufficient to complete the test was passed through a 1.0 mm (No. 18) screen to break up agglomerates that may have formed during storage. The febuxostat form was then weighed (M) and the powder was added into a 10 mL graduated cylinder. The powder was carefully leveled without compacting, and the unsettled apparent volume, Vo, was read. The bulk density, in g per mL, was calculated by the formula: Bulk Density=M/Vo Tapped density testing: A febuxostat form in an amount which is sufficient to complete the test was passed through a 1.0 mm (No. 18) screen to break up agglomerates that may have formed during storage. The febuxostat form was then weighed and the powder was added into a 10 mL graduated cylinder. The powder was carefully leveled without compacting. The cylinder was tapped 500 times initially and the tapped volume, Va, was measured to the nearest graduated unit. The tapping was then repeated for additional 750 times and the tapped volume, Vb, was measured to the nearest graduated unit. If the difference between the two volumes was less than 2%, Vb was taken as the final tapped volume, Vf. The tapped density, in g per mL, was calculated by the formula: Tapped Density=M/Vf

[2] = Physical stability measurements (XRPD, DSC, TGA)
Procedure: Testing conditions: 40° C., 60° C., 40° C./RH 75%, 60° C./RH 75%, light
Testing procedure: About 50 mg of a febuxostat form were weighed in glass vial for testing the physical stability and were stored under different conditions for 1 week and 2 weeks, separately. The same febuxostat form was stored at −20° C. as control. XRPD, DSC and TGA of each of the febuxostat forms were measured at the end of the first and second weeks.

[3] = Hygroscopicity measurements (DVS sorption/desorption profiles); settings: 25° C.
Procedure: The sorption/desorption profiles of the forms of the present invention were tested at 25° C. under 0-90% relative humidity. The forms of the present invention were classified according to the following criteria: Deliquescent: Sufficient water is absorbed to form a liquid. […] Hygroscopic: Increase in mass is less than 15% and equal to or greater than 2%. Slightly hygroscopic: Increase in mass is less than 2% and equal to or greater than 0.2%. Non-hygroscopic: Increase in mass is less than 0.2%.

[4] = Solid stability measurements (appearance, assay and total related substances by HPLC); settings: for Remaining (%): one value for both samples, vs −20° C. control; for Appearance / TRS (%): samples 1 and 2
Procedure: The detailed chromatographic conditions are listed hereinbelow. The typical retention time of febuxostat main peak is 8.2 min. [table] Testing conditions: 40° C., 60° C., 40° C./RH 75%, 60° C./RH 75%, light Testing procedure: About 3 mg of a febuxostat form were weighed in a glass vial and stored under the different conditions for 1 week and 2 weeks, separately. The same febuxostat form was stored at −20° C. as control. The test was conducted in duplication. The physical appearance, assay and total related substances of each of the febuxostat forms were measured by HPLC at the end of the first and second weeks.

Cc1nc(-c2ccc(OCC(C)C)c(C#N)c2)sc1C(=O)O [Form V, 2-(3-cyano-4-isobutoxyphenyl)-4-methyl-5-thiazolecarboxylic acid]
Bulk Density [1]: 0.444 g/mL | Tapped Density [1]: 0.637 g/mL | bulk and tapped densities (in words) ([1]; compared among forms V, IX, XI and form G): adequate bulk and tapped densities | physical stability (XRPD, DSC, TGA) ([2]; 40° C., 60° C. and light at the end of the first and second week): stable | physical stability (XRPD, DSC, TGA), form conversion ([2]; 40° C./75% RH at the end of the first week): partially converted to form G | physical stability (XRPD, DSC, TGA), form conversion ([2]; 40° C./75% RH at the end of the second week): completely converted to form G | physical stability (XRPD, DSC, TGA), form conversion ([2]; 60° C./75% RH at the end of the first and second weeks): completely converted to form G | Hygroscopicity classification ([3]; 0-90% relative humidity): very hygroscopic | weight loss after sorption-desorption cycle ([3]; DVS, might be attributed to DMSO evaporation at high humidity): about 10% | Change in Mass (%) - ref, Desorption ([3]; Target % P/P0 0.0): −9.66% | Change in Mass (%) - ref, Sorption ([3]; Target % P/P0 0.0): 0.00% | Change in Mass (%) - ref, Desorption ([3]; Target % P/P0 10.0): −8.56% | Change in Mass (%) - ref, Hysteresis ([3]; Target % P/P0 10.0): −8.64% | Change in Mass (%) - ref, Sorption ([3]; Target % P/P0 10.0): 0.08% | Change in Mass (%) - ref, Desorption ([3]; Target % P/P0 20.0): −8.49% | Change in Mass (%) - ref, Hysteresis ([3]; Target % P/P0 20.0): −8.60% | Change in Mass (%) - ref, Sorption ([3]; Target % P/P0 20.0): 0.12% | Change in Mass (%) - ref, Desorption ([3]; Target % P/P0 30.0): −8.40% | Change in Mass (%) - ref, Hysteresis ([3]; Target % P/P0 30.0): −8.53% | Change in Mass (%) - ref, Sorption ([3]; Target % P/P0 30.0): 0.14% | Change in Mass (%) - ref, Desorption ([3]; Target % P/P0 40.0): −8.30% | Change in Mass (%) - ref, Hysteresis ([3]; Target % P/P0 40.0): −8.50% | Change in Mass (%) - ref, Sorption ([3]; Target % P/P0 40.0): 0.20% | Change in Mass (%) - ref, Desorption ([3]; Target % P/P0 50.0): 1.16% | Change in Mass (%) - ref, Hysteresis ([3]; Target % P/P0 50.0): 0.93% | Change in Mass (%) - ref, Sorption ([3]; Target % P/P0 50.0): 0.23% | Change in Mass (%) - ref, Desorption ([3]; Target % P/P0 60.0): 7.34% | Change in Mass (%) - ref, Hysteresis ([3]; Target % P/P0 60.0): 7.02% | Change in Mass (%) - ref, Sorption ([3]; Target % P/P0 60.0): 0.31% | Change in Mass (%) - ref, Desorption ([3]; Target % P/P0 70.0): 14.03% | Change in Mass (%) - ref, Hysteresis ([3]; Target % P/P0 70.0): 12.45% | Change in Mass (%) - ref, Sorption ([3]; Target % P/P0 70.0): 1.59% | Change in Mass (%) - ref, Desorption ([3]; Target % P/P0 80.0): 23.42% | Change in Mass (%) - ref, Hysteresis ([3]; Target % P/P0 80.0): 7.98% | Change in Mass (%) - ref, Sorption ([3]; Target % P/P0 80.0): 15.44% | Change in Mass (%) - ref, Desorption ([3]; Target % P/P0 90.0): 36.92% | Change in Mass (%) - ref, Sorption ([3]; Target % P/P0 90.0): 36.92% | change of assay and TRS (in words) ([4]; 40° C., 60° C., 40° C./75% RH, 60° C./75% RH at end of the first and second weeks): no significant change | Remaining (%) ([4]; 40° C., 7 d): 100.62% | Appearance ([4]; 40° C., 7 d): No change | TRS (%) ([4]; 40° C., 7 d): 0.45% | Remaining (%) ([4]; 40° C., 14 d): 100.01% | Appearance ([4]; 40° C., 14 d): No change | TRS (%) ([4]; 40° C., 14 d): 0.46% and 0.47% | Remaining (%) ([4]; 40° C./75% RH, 7 d): 99.40% | Appearance ([4]; 40° C./75% RH, 7 d): No change | TRS (%) ([4]; 40° C./75% RH, 7 d): 0.47% and 0.48% | Remaining (%) ([4]; 40° C./75% RH, 14 d): 99.03% | Appearance ([4]; 40° C./75% RH, 14 d): No change | TRS (%) ([4]; 40° C./75% RH, 14 d): 0.50% and 0.52% | Remaining (%) ([4]; 60° C., 7 d): 100.65% | Appearance ([4]; 60° C., 7 d): No change | TRS (%) ([4]; 60° C., 7 d): 0.53% and 0.51% | Remaining (%) ([4]; 60° C., 14 d): 100.06% | Appearance ([4]; 60° C., 14 d): No change | TRS (%) ([4]; 60° C., 14 d): 0.54% and 0.53% | Remaining (%) ([4]; 60° C./75% RH, 7 d): 98.20% | Appearance ([4]; 60° C./75% RH, 7 d): No change | TRS (%) ([4]; 60° C./75% RH, 7 d): 0.51% and 0.52% | Remaining (%) ([4]; 60° C./75% RH, 14 d): 98.87% | Appearance ([4]; 60° C./75% RH, 14 d): No change | TRS (%) ([4]; 60° C./75% RH, 14 d): 0.52% and 0.53% | Remaining (%) ([4]; Light, 7 d): 97.74% | Appearance ([4]; Light, 7 d): Light yellow | TRS (%) ([4]; Light, 7 d): 1.02% and 1.18% | Remaining (%) ([4]; Light, 14 d): 94.06% | Appearance ([4]; Light, 14 d): Light yellow | TRS (%) ([4]; Light, 14 d): 5.99% and 5.08% | Appearance ([4]; −20° C. (control), 7 d): No change | TRS (%) ([4]; −20° C. (control), 7 d): 0.40% and 0.39% | Appearance ([4]; −20° C. (control), 14 d): No change | TRS (%) ([4]; −20° C. (control), 14 d): 0.42% and 0.41%
